Consider twelve molecules from US20240309014A1, “MACROCYCLIC COMPOUNDS AND USES THEREOF” (President and Fellows of Harvard College, priority 2017, published 2024).

One may read the IC50 as the point on the concentration scale where inhibition reaches its midpoint.

Structures are written as SMILES.

The test system of data set [1] is human lung cancer cell line NCI-H23. In words: NCI-H23 growth inhibition assay. It is filed as cell-based. The following applies: NCI-H23, 72 h, 3 days incubation, CellTiter-Glo. As to the method:
(§1) In this assay, the growth inhibitory activities of Compound D-6 (Example 26), E-2, G-4, H-2, 1-2, J-1, K-2, L-6, M-3, and N-1 in a human lung cancer cell line NCI-H23 were measured. NCI-H23 cells were maintained in RPM-1640 (Wako Pure Chemical Industries, Ltd., 187-02021) medium containing 10% fetal bovine serum (FBS: Sigma, 172012), and penicillin and streptomycin (Wako Pure Chemical Industries, Ltd., 168-23191) in a 5% CO2 incubator (37° C.). To each well of a 96 well plate (Becton, Dickinson and Company, 353219), 75 μL of NCI-H23 cell suspension adjusted to a concentration of 4×10^4 cells/mL with the culture medium was added, and the cells were incubated overnight in a 5% CO2 incubator (37° C.). On the next day, 25 μL of each compound in three-fold dilution series suspended in the culture medium was added to each well, and the resultant was incubated for 3 days in a 5% CO2 incubator (37° C.). Then, cell viability was determined by CellTiter-Glo® Luminescent Cell Viability Assay (Promega) with EnVision 2103 Multilabel Reader (Perkin-Elmer, Wellesley, MA). Value of the wells containing cells without adding the test substance was defined as 100% and the value of the wells containing no cells was defined as 0%. The concentration of the test substance necessary for inhibiting the cell growth by 50% (i.e., an IC50 value) was calculated, and summarized in Table 14.
A general note: ATP-based viability assays read luminescence as a measure of living cells.

The subject of data set [2] is human breast cancer cell line HCC1954. Kind of data set: HCC1954 growth inhibition assay (Test Example 24). It is filed as cell-based. The following applies: HCC1954, 72 h, 3 days incubation, CellTiter-Glo. As to the method: In this assay, the growth inhibitory activities of Compound D-6 (Example 26), E-2, G-4, H-2, I-2, J-1, K-2, L-6, M-3, and N-1 in a human breast cancer cell line HCCl954 were measured. HCC1954 cells were maintained in RPMI-1640 medium modified to contain 2 mM L-glutamine, 10 mM HEPES, 1 mM sodium pyruvate, 4500 mg/L glucose, and 1500 mg/L sodium bicarbonate (ATCC 30-2001) containing 10% fetal bovine serum (FBS: Sigma, 172012), and penicillin and streptomycin (Wako Pure Chemical Industries, Ltd., 168-23191) in a 5% CO2 incubator (37° C.). To each well of a 96 well plate (Becton, Dickinson and Company, 353219), 75 μL of HCC1954 cell suspension adjusted to a concentration of 4×10^4 cells/mL with the culture medium was added, and the cells were incubated overnight in a 5% CO2 incubator (37° C.). On the next day, 25 μL of each compound in three-fold dilution series suspended in the culture medium was added to each well, and the resultant was incubated for 3 days in a 5% CO2 incubator (37° C.). Then, cell viability was determined by CellTiter-Glo® Luminescent Cell Viability Assay (Promega) with EnVision 2103 Multilabel Reader (Perkin-Elmer, Wellesley, MA). Value of the wells containing cells without adding the test substance was defined as 100% and the value of the wells containing no cells was defined as 0%. The concentration of the test substance necessary for inhibiting the cell growth by 50% (i.e., an IC50 value) was calculated, and summarized in Table 14.

Data set [3] has as its system MES-SA cells. Kind of data set: MES-SA growth inhibition assay. It is filed as cell-based. The following applies: Homo sapiens, 72 h, 3 days incubation, CellTiter-Glo, read-out: Cell growth inhibition IC50 (nM) MES-SA. The procedure:
as §1, with “MES-SA” for “NCI-H23”

For data set [4] the following is noted: in vitro and in vivo; cited from earlier work.
The conditions of data set [5]: in comparison with Halichondrin B; cited from earlier work.
Data set [6] has as its system HSC-2-Luc inoculated into tongue. In words: HSC-2 orthotopic transplantation mouse model. The format is in vivo, nude mice. Conditions: Compound (1) 0.09 mg/kg.

On to `C=C1C[C@@H]2CC[C@@]34CC5O[C@H]6[C@@H](O3)[C@H]3O[C@H](CC[C@@H]3O[C@H]6C5O4)CC(=O)O[C@@H]3[C@@H](C)[C@@H]4O[C@@H]5C[C@]6(C[C@@H]7O[C@]8(C[C@H](C)[C@@H]9O[C@H](CCOC)[C@H](O)C[C@@H]9O8)C[C@H](C)[C@@H]7O6)O[C@@H]5C[C@@H]4O[C@H]3C[C@H]3O[C@@H](CC[C@@H]1O2)C[C@@H](C)C3=C` [Compound I-2], for which the IC50 in data set [1] came out at 0.103 nM; in data set [2], 0.00624 nM; in data set [3] it was 0.057 nM.
Take `C=C1C[C@@H]2CC[C@@]34C[C@H]5O[C@H]6[C@@H](O3)[C@H]3O[C@H](CC[C@@H]3O[C@H]6[C@H]5O4)CC(=O)O[C@@H]3[C@@H](C)[C@@H]4O[C@@H]5C[C@]6(CC7O[C@@]8(C[C@H](C)C7O6)C[C@H](C)[C@@H]6O[C@H](CC(=O)O)[C@H](O)C[C@@H]6O8)O[C@@H]5CC4O[C@H]3C[C@H]3O[C@@H](CC[C@@H]1O2)C[C@@H](C)C3=C` (stereo partly shown) [Norhalichondrin B]: the “activity relative to Halichondrin B” value in data set [4] is listed as “much weaker than Halichondrin B”.
`C=C1C[C@@H]2CC[C@@]34C[C@@]5(O)O[C@H]6[C@@H](O3)[C@H]3O[C@H](CC[C@@H]3O[C@H]6[C@H]5O4)CC(=O)O[C@@H]3[C@@H](C)[C@@H]4O[C@@H]5C[C@]6(C[C@@H]7O[C@]8(C[C@H](C)[C@@H]9O[C@H]([C@@H](O)C[C@@H](O)CO)C[C@@H]9O8)C[C@H](C)[C@@H]7O6)O[C@@H]5C[C@@H]4O[C@H]3C[C@H]3O[C@@H](CC[C@@H]1O2)C[C@@H](C)C3=C` [Halichondrin C]: the “stability in aqueous solution” value in data set [5] is “unstable in aqueous solution in comparison with Halichondrin B”.
Turning to `C=C1C[C@@H]2CC[C@@]34C[C@]5(O)O[C@H]6[C@@H](O3)[C@H]3O[C@H](CC[C@@H]3O[C@H]6C5O4)CC(=O)O[C@@H]3[C@@H](C)[C@@H]4O[C@@H]5C[C@]6(C[C@@H]7O[C@]8(C[C@H](C)[C@@H]9O[C@H](CCO)[C@H](O)C[C@@H]9O8)C[C@H](C)[C@@H]7O6)O[C@@H]5C[C@@H]4O[C@H]3C[C@H]3O[C@@H](CC[C@@H]1O2)C[C@@H](C)C3=C` [Compound J-1], the IC50 in data set [1] stood at 0.00992 nM; in data set [2], 0.00308 nM; in data set [3], 0.0102 nM.
On the same counts, the results for `C=C1C[C@@H]2CC[C@@]34C[C@H]5O[C@H]6[C@@H](O3)[C@H]3O[C@H](CC[C@@H]3O[C@H]6[C@H]5O4)CC(=O)O[C@@H]3[C@@H](C)[C@@H]4O[C@@H]5C[C@]6(C[C@@H]7O[C@]8(C[C@H](C)[C@@H]9O[C@H](CCN)[C@H](O)C[C@@H]9O8)C[C@H](C)[C@@H]7O6)O[C@@H]5C[C@@H]4O[C@H]3C[C@H]3O[C@@H](CC[C@@H]1O2)C[C@@H](C)C3=C` [Compound G-4] are 0.136 nM, 0.0335 nM and 0.326 nM.
Regarding `C=C1C[C@@H]2CC[C@@]34CC5O[C@H]6[C@@H](O3)[C@H]3O[C@H](CC[C@@H]3O[C@H]6C5O4)CC(=O)O[C@@H]3[C@@H](C)[C@@H]4O[C@@H]5C[C@]6(C[C@@H]7O[C@]8(C[C@H](C)[C@@H]9O[C@H](CO)[C@H](O)C[C@@H]9O8)C[C@H](C)[C@@H]7O6)O[C@@H]5C[C@@H]4O[C@H]3C[C@H]3O[C@@H](CC[C@@H]1O2)C[C@@H](C)C3=C` [Compound D-6], the IC50 in data set [1] was 0.022 nM; in data set [2], 0.0104 nM; in data set [3], 0.0138 nM.
For `C=C1C[C@@H]2CC[C@@]34CC5O[C@H]6[C@@H](O3)[C@H]3O[C@H](CC[C@@H]3O[C@H]6C5O4)CC(=O)O[C@@H]3[C@@H](C)[C@@H]4O[C@@H]5C[C@]6(C[C@@H]7O[C@]8(C[C@H](C)[C@@H]9O[C@H](CCO)[C@H](O)C[C@@H]9O8)C[C@H](C)[C@@H]7O6)O[C@@H]5C[C@@H]4O[C@H]3C[C@H]3O[C@@H](CC[C@@H]1O2)C[C@@H](C)C3=C` [Compound E-2], the IC50 was determined as 0.595 nM in data set [1], 0.0805 nM in data set [2] and 0.856 nM in data set [3].
Regarding `C=C1C[C@@H]2CC[C@@]34CC5O[C@H]6[C@@H](O3)[C@H]3O[C@H](CC[C@@H]3O[C@H]6C5O4)CC(=O)O[C@@H]3[C@@H](C)[C@@H]4O[C@@H]5C[C@]6(C[C@@H]7O[C@]8(C[C@H](C)[C@@H]9O[C@H]([C@@H](O)CCO)C[C@@H]9O8)C[C@H](C)[C@@H]7O6)O[C@@H]5C[C@@H]4O[C@H]3C[C@H]3O[C@@H](CC[C@@H]1O2)C[C@@H](C)C3=C` [Compound M-3], the IC50 amounted to 0.0199 nM in data set [1], 0.0101 nM in data set [2] and 0.0141 nM in data set [3].
On the same counts, the results for `C=C1C[C@@H]2CC[C@@]34CC5O[C@H]6[C@@H](O3)[C@H]3O[C@H](CC[C@@H]3O[C@H]6C5O4)CC(=O)O[C@@H]3[C@@H](C)[C@@H]4O[C@@H]5C[C@]6(C[C@@H]7O[C@]8(C[C@H](C)[C@@H]9O[C@H]([C@@H](O)CCN)C[C@@H]9O8)C[C@H](C)[C@@H]7O6)O[C@@H]5C[C@@H]4O[C@H]3C[C@H]3O[C@@H](CC[C@@H]1O2)C[C@@H](C)C3=C` [Compound N-1] are 1.53 nM, 0.08 nM and 2.88 nM.
The corresponding values for `C=C1C[C@@H]2CC[C@@]34C[C@@]5(O)O[C@H]6[C@@H](O3)[C@H]3O[C@H](CC[C@@H]3O[C@H]6[C@H]5O4)CC(=O)O[C@@H]3[C@@H](C)[C@@H]4O[C@@H]5C[C@]6(C[C@@H]7O[C@]8(C[C@H](C)[C@@H]9O[C@H]([C@@H](O)C[C@@H](O)CN)C[C@@H]9O8)C[C@H](C)[C@@H]7O6)O[C@@H]5C[C@@H]4O[C@H]3C[C@H]3O[C@@H](CC[C@@H]1O2)C[C@@H](C)C3=C` [Compound L-6] are 6.81 nM, 0.269 nM and 2.79 nM.
With `N.N.[Cl][Pt][Cl]` [Cisplatin, cisplatin, reference compound], the “ILS (%)” value in data set [6] (single agent, Q7Dx3: cetuximab 5 mg/kg, cisplatin 5 mg/kg) was 0%; in data set [6] (with cetuximab 5 mg/kg, Q7Dx3: cisplatin 5 mg/kg), 150%.
With `C=C1C[C@@H]2CC[C@@]34CC5O[C@H]6[C@@H](O3)[C@H]3O[C@H](CC[C@@H]3O[C@H]6C5O4)CC(=O)O[C@@H]3[C@@H](C)[C@@H]4O[C@@H]5C[C@]6(C[C@@H]7O[C@]8(C[C@H](C)[C@@H]9O[C@H]([C@@H](O)C[C@@H](O)CN)C[C@@H]9O8)C[C@H](C)[C@@H]7O6)O[C@@H]5C[C@@H]4O[C@H]3C[C@H]3O[C@@H](CC[C@@H]1O2)C[C@@H](C)C3=C` [Compound K-2], the IC50 in data set [1] was 0.461 nM; in data set [2] it was 0.07 nM; in data set [3], 0.341 nM.
